Patent US8765808B2, “Treatment or prevention of cancer and precancerous disorders” (CHS Pharma, Inc., priority 2005, dated 2014)
“Also recorded” adds a separate entry of the source.

Columns and labels:
[1] = test system: SCC-25 squamous cell skin cancer cell line; assay: MTS cell viability after pretreatment and oxidative stress, SCC skin cancer cells; assay type: cell-based, human; conditions: 500 μM sulindac 24 hr pretreatment, then TBHP 2 hr (FIG. 1)
Procedure: (§1) SCC-25 is a human squamous cell carcinoma cell line developed by J G Rheinwald [Rheinwald, 1981]. […] The cells were maintained in minimum essential medium (Eagle) supplemented with 2 mM L-glutamine, Earle's BSS containing 1.5 g/L sodium bicarbonate, 0.1 mM non-essential amino acids, 1.0 mM sodium pyruvate and 10% fetal bovine serum.
The experimental approach was to pretreat SCC cells with sulindac for 24 hr prior to exposure to TBHP for 2 hr. Sulindac (Sigma; S-8139) was freshly prepared as a 1M stock solution in 1M Tris.Cl, pH 8.0. SCC cells were suspended in culture medium containing 10% fetal bovine serum at a cell density of 6×10^5 cells/ml. Cell suspensions containing 500 μM sulindac or no sulindac (Control) were plated in 96 well microtiter plates with a total of 6×10^4 cells per well. The plates were incubated for 24 hr at 37° C. in a 5% CO2 incubator. The culture medium was then removed and the cells washed once with fresh culture medium without serum. After removal of the wash solution, fresh culture medium without serum that contained the indicated final concentration of TBHP was added to the cells for 2 hrs. Serum was omitted from the medium during the two-hour exposure to TBHP since TBHP may be rapidly depleted in the presence of serum.

[2] = test system: RKO colon cancer cell line; assay: MTS cell viability after pretreatment and oxidative stress, RKO colon cancer cells; assay type: cell-based, human; conditions: 500 μM sulindac 24 hr pretreatment, then TBHP 2 hr (FIG. 4)
Procedure: as §1, with “RKO” for “SCC-25”, “colon” for “squamous cell”, “Michael Brattain [Brattain, 1984].” for “J G Rheinwald [Rheinwald, 1981].”
Experiments were performed with the RKO colon cancer cells that were pretreated with 500 μM sulindac using TBHP.

[3] = test system: WM-266-4 Melanoma skin cell line; assay: MTS cell viability after pretreatment and oxidative stress, melanoma cells; assay type: cell-based, human; conditions: 500 μM sulindac 24 hr pretreatment, then TBHP 2 hr (FIG. 8)
[4] = test system: normal human epidermal keratinocytes; assay: Cell viability after sulindac pretreatment and oxidative stress, normal keratinocytes; assay type: cell-based
Procedure: Experiments using similar methods were performed with primary human neonatal foreskin epidermal keratinocytes. These cells were of low-passage and purified using previously accepted protocols (provided by J. Li, University of Miami, Fl.). Cells were grown in 50% Keratinocyte-SFM media [Gibco-Invitrogen (Catalog #17005-042) supplemented with human recombinant Epidermal Growth Factor 1-53 (EGF 1-53) and Bovine Pituitary Extract (BPE)] with 50% EpiLife medium [Cascade Biologics (Catalog #Epi-500-Ca)] supplemented with purified bovine serum albumin, purified bovine transferrin, hydrocortisone, recombinant human insulin-like growth factor type-1 (rhIGF-1), prostaglandin E2 (PGE2), and recombinant human epidermal growth factor (rhEGF).
Normal human epidermal keratinocyte cells were incubated for 24 hr in the presence or absence of 500 μM sulindac. The medium was removed and the cells washed once with fresh medium followed by addition of medium containing the indicated concentration of (a) TBHP or (b) arsenic trioxide. After a 2 hr incubation with TBHP or a 24-hour incubation with arsenic trioxide at 37° C., the cells were assayed for viability as described.

[5] = test system: CCD-18Co normal human colon cell line; assay: MTS cell viability after sulindac pretreatment and TBHP, normal colon cells; assay type: cell-based; conditions: 500 μM sulindac 24 hr, then TBHP 2 hr (FIG. 11)
Procedure: (§2) The cells were maintained in minimum essential medium (Eagle) supplemented with 2 mM L-glutamine, Earle's BSS containing 1.5 g/L sodium bicarbonate, 0.1 mM non-essential amino acids, 1.0 mM sodium pyruvate and 10% fetal bovine serum.

[6] = test system: MRC-5 normal human lung cell line; assay: MTS cell viability after sulindac pretreatment and TBHP, normal lung cells; assay type: cell-based; conditions: 500 μM sulindac 24 hr, then TBHP 2 hr (FIG. 12)
Procedure: as §2

[7] = test system: Primary neonatal rat cardiac myocytes; assay: Killing by peroxide after sulindac, normal cardiac cells; assay type: cell-based; conditions: sulindac followed by peroxide (hydrogen peroxide and TBHP)
Description: (§3) Primary neonatal rat cardiac myocytes and ARPE-19, a human retinal pigment epithelial cell line that is not fully transformed, were used in similar experiments with sulindac followed by peroxide.

[8] = test system: ARPE-19, a human retinal pigment epithelial cell line; assay: Killing by peroxide after sulindac, retinal cells; assay type: cell-based; conditions: sulindac followed by peroxide (hydrogen peroxide and TBHP)
Description: as §3

[9] = test system: normal cells; assay: Constant non-toxic TBHP with escalating sulindac (FIG. 16), normal cells; assay type: cell-based; conditions: escalating sulindac 500 μM-1500 μM
[10] = test system: cancer cells; assay: Constant non-toxic TBHP with escalating sulindac (FIG. 16), cancer cells; assay type: cell-based; conditions: escalating sulindac 500 μM-1500 μM
[11] = test system: Lung cancer cells; assay: Intracellular ROS levels, lung cancer cells; assay type: cell-based; conditions: combination of sulindac and TBHP vs either treatment alone
[12] = test system: Normal lung cells; assay: Intracellular ROS levels, normal lung cells; assay type: cell-based; conditions: combination of sulindac and TBHP
[13] = Time course of sulindac pre-incubation before addition of the oxidant; assay type: cell-based
Procedure: Sulindac was pre-incubated for various times prior to the addition of the oxidant. […] There was no difference in the results with longer time courses such as 48-72 hours. After the pre-incubation with sulindac, the cells were washed and the oxidant was added with or without sulindac.

[14] = test system: SCC-25 squamous cell skin cancer cell line; assay: MTS cell viability after pretreatment and oxidative stress, SCC skin cancer cells; assay type: cell-based, human; conditions: sulindac alone, concentrations below 1 mM, MTS assay
[15] = test system: Normal HEK skin cells (human neonatal epidermal keratinocytes); assay: Intracellular ROS by indicator dye fluorescence, normal HEK skin cells
Procedure: Experimental conditions: Normal HEK skin cells plated onto 6-well plates at cell density of 60-70% confluence. Sulindac (0.5 mM)×24 hours (cell density remained about the same) followed by TBHP×2 hours followed by ROS indicator dye (5 μM)×1 hour (Table 1).
Human neonatal epidermal keratinocytes were plated into 6-well plates at a cell density of 60-70% confluence. The cultures were pretreated with sulindac (500 uM) for 34 hours followed by the addition of different concentrations of TBHP for 2 hours. During this period of time, the cell density in the 6-well plates remained the same (there was no increase in cell proliferation). This was followed by the addition of the ROS indicator dye.

[16] = test system: SCC skin cancer cells; assay: Intracellular ROS by indicator dye fluorescence, SCC skin cancer cells
Procedure: SCC skin cancer cells were plated onto 6-well plates at a cell density of 50-60% confluence. The cultures were pretreated with sulindac (500 uM) for 24 hours followed by the addition of TBHP (100 uM) for two hours. During this period of time, the cell density in the 6-well plates increased to 80-90% confluent.

[17] = test system: precancerous growths and/or BCC's; assay: Topical sulindac gel followed by hydrogen peroxide solution in patients; conditions: applied alone to the skin condition
[18] = test system: lung carcinoma cell line designated A549; assay: MTS cell viability after pretreatment and oxidative stress, lung cancer cells
Procedure: Cell viability was determined by the [sequence] 96®-Aqueous One Cell Proliferation Assay (Promega) according to the manufacturer's instructions. The assay utilizes a novel tetrazolium compound (3-(4,5-dimethylthiazol-2-yl)-5-(3-carboxymethoxyphenyl)-2-(4-sulfophenyl)-2H-tetrazolium; MTS) and an electron-coupling reagent (phenazine ethosulfate; PES). Metabolically active cells convert the MTS to a water-soluble formazan by the action of cellular dehydrogenases. The amount of formazan produced is measured by absorbance at 490 nm using a colorimetric microtiter plate reader (BIORAD; Model 2550). Absorbance is directly proportional to the number of viable cells.
Experiments using similar methods were performed with a lung carcinoma cell line designated A549. […] Cells were grown in Ham's F12K medium supplemented with final concentrations of 2 mM L-glutamine, 1.6 g/L sodium bicarbonate and 10% fetal bovine serum. Cultures were maintained between 6×10^3-6×10^4 cells/cm^2 in standard tissue culture flasks. The protocol for pretreatment of cells with 500 μM sulindac followed by a two hour exposure to various concentrations of TBHP was the same as that described for the RKO colon cancer cells.
Following a 24 hr pretreatment with 500 μM sulindac, the cells were washed once to remove the excess sulindac before exposure to TBHP for 2 hr.

Compound: CC1=C(CC(=O)O)c2cc(F)ccc2/C1=C\c1ccc([S+](C)[O-])cc1 (racemic) [sulindac, Sulindac]
- killing of SCC carcinoma cells by TBHP [1]: enhanced the killing
- killing of RKO carcinoma cells by TBHP [2]: enhanced the killing
- killing of Melanoma cells by TBHP [3]: enhanced the killing
- viability of normal human epidermal keratinocytes, TBHP ([4]; 500 μM sulindac 24 hr, then TBHP 2 hr (FIG. 10A)): no significant effect
- viability of normal human epidermal keratinocytes, arsenic trioxide ([4]; 500 μM sulindac 24 hr, then arsenic trioxide 24 hr (FIG. 10B)): no significant effect
- TBHP concentrations with protective effect (enhanced resistance to oxidative stress) ([4]; in combination with sulindac, effect lost above 400 μM TBHP): 50 to 400 µM
- effect on oxidative stress by TBHP, normal colon cells [5]: provided protection from oxidative stress
- effect on oxidative stress by TBHP, normal lung cells [6]: provided protection from oxidative stress
- killing of normal cardiac cells by peroxide [7]: no enhanced killing
- killing of retinal cells by peroxide [8]: no enhanced killing
- effect on normal cells [9]: protective effect
- effect on cancer cells [10]: enhanced killing
- intracellular ROS levels, lung cancer cells [11]: significantly higher levels of ROS
- intracellular ROS levels, normal lung cells [12]: lower levels of ROS
- minimum pre-incubation time with sulindac to see an effect [13]: ≥ 6 h
- pre-incubation time with sulindac giving optimum effects [13]: 18 to 24 h
- toxicity of sulindac: effect on cell viability [14]: no detectable effect on cell viability
- % Cells with ROS Uptake by Fluorescence ([15]; Table 1, Sul alone, 0.5 mM 24 hours): 2%
- % Cells containing ROS ([15]; Table 4, Sul 500 uM alone): 2%
- level of ROS uptake in normal HEK cells when combined with TBHP ([15]; sulindac combined with TBHP vs sulindac or TBHP alone): no significant effect
- % Cells with ROS Uptake by Fluorescence ([16]; Table 2, Sul 0.5 mM 24 hours and/or TBHP 100 μM 2 hours): 3%
- % Cells containing ROS ([16]; Table 3, Sul 500 μM 24 hours and/or TBHP 100 μM 2 hours): 3%
- number of spindle cells in the culture ([16]; compared to untreated controls): tends to increase the number of spindle cells
- ROS uptake in SCC skin cancer cells, sulindac in combination with TBHP ([16]; sulindac 0.5 mM 24 hours then TBHP 100 μM 2 hours): geometrically enhances the levels of ROS uptake
- ROS levels in SCC skin cancer cells, agent alone ([16]; sulindac 500 uM or TBHP 100 uM alone): enhances the levels of ROS uptake; also recorded: enhanced the ROS levels
- effect on the precancerous or cancerous growth when applied alone [17]: no effect
- cell viability of lung cancer cells after exposure to TBHP ([18]; 500 μM sulindac 24 hr pretreatment, then TBHP 2 hr (FIG. 6)): marked decrease in cell viability
- sensitivity of lung cancer cells to killing by H2O2 ([18]; 500 μM sulindac pretreatment (FIG. 7)): differentially sensitive to killing
- viability of cells pretreated with sulindac ([18]; 1.5-2.0 mM TBHP, 2 hr, 500 μM sulindac pretreatment): at background levels
- killing effect in all cancer cell studies ([18]; FIG. 15, 500 μM sulindac, 250 μM sulindac sulfone): most potent killing effect
- H2O2 range in which difference in viability is highly significant (P<0.001) ([18]; sulindac-treated vs untreated cells): 2.5 to 5.0 mM
